Laboratory results from patent US12281122B1, “PI3K inhibitors” (Cogent Biosciences, Inc., priority 2023, dated 2025).

Experiments:
[1] = system: SKBR3 (PI3Kα-Wild Type) cell line; assay: HTRF phospho-AKT(S473) cell assay in SKBR3 cells; type: cell-based, human; conditions: Homo sapiens, SK-BR-3; SKBR3 (PI3Kα-Wild Type) cells, HTRF phospho-AKT(S473), 2 hours compound incubation, PDGF-BB stimulated
Procedure, shortened: (§1)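 Cells plated overnight (T47D in RPMI/10% FBS/0.2 units/mL insulin; SKBR3 in McCoy's 5A/10% FBS), then given 12-point 1:3 compound series (top 5 μM T47D, 10 μM SKBR3; ≤0.5% DMSO) for 2 h at 37° C. SKBR3 stimulated with 70 ng/ml PDGF-BB for final 15 min. Lysate pAKT(S473) by HTRF; IC50 calculated.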

[2] = system: T47D (PI3Kα-H1047R) cell line; assay: HTRF phospho-AKT(S473) cell assay in T47D cells; type: cell-based, human; conditions: Homo sapiens; T47D (PI3Kα-H1047R) cells, HTRF phospho-AKT(S473), 2 hours compound incubation
Procedure, shortened: as §1

Compound	IC50 [1] [nM]	IC50 [2] [nM]
Cc1cc([C@@H](C)Nc2ccc(Cl)nc2C(=O)NS(C)(=O)=O)c2nc(N3Cc4n[nH]c(N)c4C3)n(C)c(=O)c2c1 [Compound 148, (R)-3-((1-(2-(3-amino-2,6-dihydropyrrolo[3,4-c]pyrazol-5(4H)-yl)-3,6-dimethyl-4-oxo-3,4-dihydroquinazolin-8-yl)ethyl)amino)-6-chloro-N-(methylsulfonyl) picolinamide]	≥ 5000	1000 to 5000
Cc1cc([C@@H](C)Nc2ccc(Cl)nc2C(=O)NS(=O)(=O)NC2CC2)c2nc(N3Cc4ccc(F)cc4C3)n(C)c(=O)c2c1 [Compound 152, (R)-6-chloro-N-(N-cyclopropylsulfamoyl)-3-((1-(2-(5-fluoroisoindolin-2-yl)-3,6-dimethyl-4-oxo-3,4-dihydroquinazolin-8-yl)ethyl)amino)picolinamide]	≥ 5000	250 to 500
Cc1cc([C@@H](C)Nc2ccc(Cl)nc2C(=O)NS(=O)(=O)c2ccncc2)c2nc(N3Cc4ccc(F)cc4C3)n(C)c(=O)c2c1 [Compound 170, (R)-6-chloro-3-((1-(2-(5-fluoroisoindolin-2-yl)-3,6-dimethyl-4-oxo-3,4-dihydroquinazolin-8-yl)ethyl)amino)-N-(pyridin-4-ylsulfonyl)picolinamide]	≥ 5000	< 250
Cc1cc([C@@H](C)Nc2ccc(Cl)nc2C(=O)NS(C)(=O)=O)c2nc(N3CCN(c4ccc(N)nc4)CC3)n(C)c(=O)c2c1 [Compound 174, (R)-3-((1-(2-(4-(6-aminopyridin-3-yl)piperazin-1-yl)-3,6-dimethyl-4-oxo-3,4-dihydroquinazolin-8-yl)ethyl)amino)-6-chloro-N-(methylsulfonyl) picolinamide]	1000 to 5000	< 250
CC(=O)N1CCN(c2ccc(-c3nc4c([C@@H](C)Nc5ccc(Cl)nc5C(=O)NS(C)(=O)=O)cc(C)cc4c(=O)n3C)cn2)CC1 [Compound 175, (R)-3-((1-(2-(6-(4-acetylpiperazin-1-yl)pyridin-3-yl)-3,6-dimethyl-4-oxo-3,4-dihydroquinazolin-8-yl)ethyl)amino)-6-chloro-N-(methylsulfonyl) picolinamide]	1000 to 5000	< 250
Cc1cc([C@@H](C)Nc2ccc(Cl)nc2C(=O)NS(C)(=O)=O)c2nc(N3Cc4cn(C(F)F)nc4C3)n(C)c(=O)c2c1 [Compound 176, (R)-6-chloro-3-((1-(2-(2-(difluoromethyl)-2,6-dihydropyrrolo[3,4-c]pyrazol-5(4H)-yl)-3,6-dimethyl-4-oxo-3,4-dihydroquinazolin-8-yl)ethyl)amino)-N-(methylsulfonyl) picolinamide]	1000 to 5000	< 250
Cc1cc([C@@H](C)Nc2ccc(Cl)nc2C(=O)NS(C)(=O)=O)c2nc(-c3ccc(N4CCC(O)CC4)nc3)n(C)c(=O)c2c1 [Compound 177, (R)-6-chloro-3-((1-(2-(6-(4-hydroxypiperidin-1-yl)pyridin-3-yl)-3,6-dimethyl-4-oxo-3,4-dihydroquinazolin-8-yl)ethyl)amino)-N-(methylsulfonyl) picolinamide]	1000 to 5000	< 250
Cc1cc([C@@H](C)Nc2ccc(Cl)nc2C(=O)NS(C)(=O)=O)c2nc(N3CCC(c4ccn(C)n4)CC3)n(C)c(=O)c2c1 [Compound 178, (R)-6-chloro-3-((1-(3,6-dimethyl-2-(4-(1-methyl-1H-pyrazol-3-yl)piperidin-1-yl)-4-oxo-3,4-dihydroquinazolin-8-yl)ethyl)amino)-N-(methylsulfonyl) picolinamide]	1000 to 5000	< 250
Cc1cc([C@@H](C)Nc2ccc(Cl)nc2C(=O)NS(C)(=O)=O)c2nc(N3Cc4cnn(C5(C(F)(F)F)CC5)c4C3)n(C)c(=O)c2c1 [Compound 179, (R)-6-chloro-3-((1-(3,6-dimethyl-4-oxo-2-(1-(1-(trifluoromethyl)cyclopropyl)-4,6-dihydropyrrolo[3,4-c]pyrazol-5(1H)-yl)-3,4-dihydroquinazolin-8-yl)ethyl)amino)-N-(methylsulfonyl) picolinamide]	1000 to 5000	< 250
Cc1cc([C@@H](C)Nc2ccc(Cl)nc2C(=O)NS(C)(=O)=O)c2nc(C3CCN(c4ccc(C#N)nc4)CC3)n(C)c(=O)c2c1 [Compound 180, (R)-6-chloro-3-((1-(2-(1-(6-cyanopyridin-3-yl)piperidin-4-yl)-3,6-dimethyl-4-oxo-3,4-dihydroquinazolin-8-yl)ethyl)amino)-N-(methylsulfonyl) picolinamide]	1000 to 5000	< 250
Cc1cc([C@@H](C)Nc2ccc(Cl)nc2C(=O)NS(C)(=O)=O)c2nc(N3CCC(c4cnn(C)c4)CC3)n(C)c(=O)c2c1 [Compound 181, (R)-6-chloro-3-((1-(3,6-dimethyl-2-(4-(1-methyl-1H-pyrazol-4-yl)piperidin-1-yl)-4-oxo-3,4-dihydroquinazolin-8-yl)ethyl)amino)-N-(methylsulfonyl) picolinamide]	1000 to 5000	< 250
Cc1cc([C@@H](C)Nc2ccc(Cl)nc2C(=O)NS(C)(=O)=O)c2nc(N3CCN(c4ccccn4)CC3)n(C)c(=O)c2c1 [Compound 182, (R)-6-chloro-3-((1-(3,6-dimethyl-4-oxo-2-(4-(pyridin-2-yl)piperazin-1-yl)-3,4-dihydroquinazolin-8-yl)ethyl)amino)-N-(methylsulfonyl) picolinamide]	1000 to 5000	< 250

Results, then the molecule that gave them:

IC50 [1] [nM]	IC50 [2] [nM]	Compound
1000 to 5000	250 to 500	Cc1cc([C@@H](C)Nc2ccc(Cl)nc2C(=O)NS(C)(=O)=O)c2nc(N3Cc4cn(CCO)nc4C3)n(C)c(=O)c2c1 [Compound 149, (R)-6-chloro-3-((1-(2-(2-(2-hydroxyethyl)-2,6-dihydropyrrolo[3,4-c]pyrazol-5(4H)-yl)-3,6-dimethyl-4-oxo-3,4-dihydroquinazolin-8-yl)ethyl)amino)-N-(methylsulfonyl) picolinamide]
1000 to 5000	250 to 500	Cc1cc([C@@H](C)Nc2ccc(Cl)nc2C(=O)NS(C)(=O)=O)c2nc(N(C)CC3(C(F)(F)F)CC3)n(C)c(=O)c2c1 [Compound 163, (R)-6-chloro-3-((1-(3,6-dimethyl-2-(methyl((1-(trifluoromethyl)cyclopropyl)methyl)amino)-4-oxo-3,4-dihydroquinazolin-8-yl)ethyl)amino)-N-(methylsulfonyl) picolinamide]
1000 to 5000	< 250	Cc1cc([C@@H](C)Nc2ccc(Cl)nc2C(=O)NS(C)(=O)=O)c2nc(N3CCN(c4ccc(C#N)cn4)CC3)n(C)c(=O)c2c1 [Compound 164, (R)-6-chloro-3-((1-(2-(4-(5-cyanopyridin-2-yl)piperazin-1-yl)-3,6-dimethyl-4-oxo-3,4-dihydroquinazolin-8-yl)ethyl)amino)-N-(methylsulfonyl) picolinamide]
1000 to 5000	< 250	Cc1cc([C@@H](C)Nc2ccc(Cl)nc2C(=O)NS(C)(=O)=O)c2nc(N3CCC(c4ccn[nH]4)CC3)n(C)c(=O)c2c1 [Compound 165, (R)-3-((1-(2-(4-(1H-pyrazol-5-yl)piperidin-1-yl)-3,6-dimethyl-4-oxo-3,4-dihydroquinazolin-8-yl)ethyl)amino)-6-chloro-N-(methylsulfonyl) picolinamide]
1000 to 5000	< 250	Cc1cc([C@@H](C)Nc2ccc(Cl)nc2C(=O)NS(C)(=O)=O)c2nc(N3CCn4nc(C)cc4C3)n(C)c(=O)c2c1 [Compound 166]
1000 to 5000	< 250	Cc1cc([C@@H](C)Nc2ccc(Cl)nc2C(=O)NS(C)(=O)=O)c2nc(N3CCC(c4cn[nH]c4)CC3)n(C)c(=O)c2c1 [Compound 167, (R)-3-((1-(2-(4-(1H-pyrazol-4-yl)piperidin-1-yl)-3,6-dimethyl-4-oxo-3,4-dihydroquinazolin-8-yl)ethyl)amino)-6-chloro-N-(methylsulfonyl) picolinamide]
1000 to 5000	< 250	Cc1cc([C@@H](C)Nc2ccc(Cl)nc2C(=O)NS(C)(=O)=O)c2nc(N3CCN(c4ncccn4)CC3)n(C)c(=O)c2c1 [Compound 169, (R)-6-chloro-3-((1-(3,6-dimethyl-4-oxo-2-(4-(pyrimidin-2-yl)piperazin-1-yl)-3,4-dihydroquinazolin-8-yl)ethyl)amino)-N-(methylsulfonyl) picolinamide]
1000 to 5000	< 250	Cc1cc([C@@H](C)Nc2ccc(Cl)nc2C(=O)NS(C)(=O)=O)c2nc(-c3cnn(-c4ccccc4)c3)n(C)c(=O)c2c1 [Compound 171, (R)-6-chloro-3-((1-(3,6-dimethyl-4-oxo-2-(1-phenyl-1H-pyrazol-4-yl)-3,4-dihydroquinazolin-8-yl)ethyl)amino)-N-(methylsulfonyl) picolinamide]
1000 to 5000	< 250	Cc1cc([C@@H](C)Nc2ccc(Cl)nc2C(=O)NS(C)(=O)=O)c2nc(N3Cc4cnn(C(F)F)c4C3)n(C)c(=O)c2c1 [Compound 172, (R)-6-chloro-3-((1-(2-(1-(difluoromethyl)-4,6-dihydropyrrolo[3,4-c]pyrazol-5(1H)-yl)-3,6-dimethyl-4-oxo-3,4-dihydroquinazolin-8-yl)ethyl)amino)-N-(methylsulfonyl) picolinamide]
1000 to 5000	< 250	Cc1cc([C@@H](C)Nc2ccc(Cl)nc2C(=O)NS(=O)(=O)C2COC2)c2nc(N3Cc4ccc(F)cc4C3)n(C)c(=O)c2c1 [Compound 173, (R)-6-chloro-3-((1-(2-(5-fluoroisoindolin-2-yl)-3,6-dimethyl-4-oxo-3,4-dihydroquinazolin-8-yl)ethyl)amino)-N-(oxetan-3-ylsulfonyl)picolinamide]
